From patent US7718651B2, “Inhibitors of FtsZ and uses thereof” (priority 2002, dated 2010)
≈ marks a conversion by molar mass, not a printed value. Read-outs that look alike come from different tables or passages of the source.

Key:
Assay type in all cases: cell-based
M. tuberculosis H37Rv [1] = experiment: microbe, parasite or virus in culture; details: for inhibition of growth at 12.5 µg/mL: Mycobacterium tuberculosis, at 12.5% μg/ml (so in the source), read-out: Primary Screen PI (% inhibition of growth); for activity against M. tuberculosis H37Rv in the primary screen: in words
M. tuberculosis H37Rv [2] = experiment: MIC99 determination, BACTEC 460 radiometric system; details: Mycobacterium tuberculosis; for MIC99: Table 3, read-out: Screen 2 MIC99
Vero cells = experiment: Cytotoxicity in Vero cells (MTS assay); details: Chlorocebus sabaeus
[3] = M. tuberculosis H37Rv, screen concentration 12.5 g/ml [sic], Table 8
[4] = M. tuberculosis H37Rv, Table 8, read-out: MIC
[5] = Vero cells, Table 8, read-out: IC50

| SMILES | % Inh (M. tuberculosis H37Rv [1]; [3]) [%] | other results |
| --- | --- | --- |
| CCOC(=O)Nc1cc(NC(C)CCCN(CC)CC)c2ncc(-c3ccc(Cl)c(Cl)c3)nc2n1.Cl.Cl (stereo not drawn) [Compound A7] | 99 | MIC (M. tuberculosis H37Rv [2]; [4]): 3.13 µg/mL; IC50 (Vero cells): 1.89 µg/mL |
| CCOC(=O)Nc1cc2nc(-c3ccccc3)c(-c3ccccc3)nc2c(NC(=O)OCC)n1 [Compound A51] | 92 | MIC (M. tuberculosis H37Rv [2]; [4]): > 6.25 µg/mL |
| CCOC(=O)Nc1cc(NC(C)CCCN(CC)CC)c2nc(-c3ccc(F)cc3)cnc2n1 (stereo not drawn) [Compound A25] | 98 | MIC (M. tuberculosis H37Rv [2]; H37RV): 12.5 µg/mL (≈ 26.7 µM); IC50 (Vero cells): 6.8 µg/mL (≈ 14.5 µM) |
| C[C@@H]1Nc2cc(NC(=O)OCc3ccccc3)nc(N)c2N=C1c1ccccc1 [Compound A26] | 98 | MIC (M. tuberculosis H37Rv [2]; [4]): 12.5 µg/mL (≈ 32.3 µM); IC50 (Vero cells; [5]): 1.51 µg/mL (≈ 3.9 µM) |
| CCOC(=O)Nc1cc2c(c(N)n1)N=C(c1cc(OC)cc(OC)c1)[C@H](C)O2 [Compound A42] | 95 | MIC (M. tuberculosis H37Rv [2]; [4]): 12.5 µg/mL (≈ 32.3 µM) |
| CCOC(=O)Nc1cc2[nH]c(-c3ccc(OC)cc3)nc2c(NC(c2ccccc2)c2ccccc2)n1 [Compound A46] | 93 | MIC (M. tuberculosis H37Rv [2]; [4]): 3.13 µg/mL (≈ 6.34 µM); IC50 (Vero cells; [5]): 189 µg/mL (≈ 383 µM) |
| CCOC(=O)Nc1cc2c(c(N)n1)N=C(c1ccccc1)C(c1ccccc1)O2 (stereo not drawn) [Compound A55] | 90 | MIC (M. tuberculosis H37Rv [2]; [4]): 6.25 µg/mL (≈ 16.1 µM) |
| CCCCC1=Nc2c(cc(NC(=O)OCC)nc2N)NC1C (stereo not drawn) [Compound A41] | 95 | MIC (M. tuberculosis H37Rv [2]; [4]): 12.5 µg/mL (≈ 40.9 µM); IC50 (Vero cells; [5]): 1.51 µg/mL (≈ 4.94 µM) |
| CCOC(=O)Nc1cc(NC(C)CCCN(CC)CC)c2nc(-c3ccc(Cl)cc3)c(-c3ccc(Cl)cc3)nc2n1 (stereo not drawn) [Compound A6] | 99 | MIC (M. tuberculosis H37Rv [2]; [4]): 1.56 µg/mL (≈ 2.62 µM) |
| CCOC(=O)Nc1cc2c(c(N)n1)N=C(c1ccc(OC)cc1)C(C)N2 (stereo not drawn) [Compound A44] | 94 | MIC (M. tuberculosis H37Rv [2]; [4]): 12.5 µg/mL (≈ 35.2 µM); IC50 (Vero cells; [5]): 1.53 µg/mL (≈ 4.31 µM) |
| O=C(Nc1cc(Cl)cc(NC(=O)Oc2ccccc2)n1)Oc1ccccc1 [Compound A36] | 97 | MIC (M. tuberculosis H37Rv [2]; H37RV): 12.5 µg/mL (≈ 32.6 µM) |
| CCOC(=O)Nc1cc2c(c(N)n1)N=C(c1ccc(OCc3ccccc3)cc1)[C@@H](C)N2 [Compound A9] | 99 | MIC (M. tuberculosis H37Rv [2]; [4]): 6.25 µg/mL (≈ 14.5 µM) |
| CCOC(=O)Nc1cc2c(c(N)n1)N=C(c1ccccc1)CCN2 [Compound A2] | 100 | MIC (M. tuberculosis H37Rv [2]; [4]): 6.25 µg/mL (≈ 19.2 µM); IC50 (Vero cells; [5]): > 200 µg/mL |
| CCOC(=O)Nc1cc2c(c(N)n1)N=C(CN(C)c1ccccc1)CN2 [Compound A53] | 92 | MIC (M. tuberculosis H37Rv [2]; [4]): 12.5 µg/mL (≈ 35.3 µM); IC50 (Vero cells; [5]): 0.41 µg/mL (≈ 1.16 µM) |
| CCOC(=O)Nc1cc2c(c(N)n1)N=C(c1ccc(OCc3ccccc3)cc1)[C@H](C)N2 [Compound A8] | 99 | MIC (M. tuberculosis H37Rv [2]; [4]): 6.25 µg/mL (≈ 14.5 µM) |
| CCOC(=O)Nc1cc2c(c(N)n1)N=C(c1ccccc1)[C@H](C)O2 [Compound A56] | 90 | MIC (M. tuberculosis H37Rv [2]; [4]): 12.5 µg/mL (≈ 38.3 µM) |
| CCOC(=O)Nc1cc(NC(C)CCCN(CC)CC)c2ncc(-c3ccc(Cl)cc3)nc2n1.Cl (stereo not drawn) [Compound A5] | 99 | MIC (M. tuberculosis H37Rv [2]; [4]): 1.56 µg/mL |
| CCOC(=O)Nc1cc(Nc2ccc(Cl)cc2)c2nccnc2n1 [Compound A43] | 94 | MIC (M. tuberculosis H37Rv [2]; [4]): 6.25 µg/mL (≈ 18.2 µM) |
| CCOC(=O)Nc1cc(NC/C(=N\O)C23CC4CC(CC(C4)C2)C3)c([N+](=O)[O-])c(N)n1 [Compound A47] | 93 | MIC (M. tuberculosis H37Rv [2]; [4]): > 12.5 µg/mL |
| CCOC(=O)Nc1cc(NC(C)CCCN(CC)CC)c2ncc(-c3ccccc3)nc2n1.Cl.Cl (stereo not drawn) [Compound A37] | 96 | MIC (M. tuberculosis H37Rv [2]; [4]): 12.5 µg/mL |
| COC(=O)Nc1cc2c(c(N)n1)N=C(c1ccccc1)[C@H](C)N2 [Compound A113] | 41 |  |
| CCOC(=O)Nc1cc2[nH]c(-c3ccc([N+](=O)[O-])cc3)nc2c(N(CCc2ccccc2)Cc2ccccc2)n1 [Compound A14] | 98 |  |

| SMILES | % Inh (M. tuberculosis H37Rv [1]; [3]) [%] | other results |
| --- | --- | --- |
| CCOC(=O)Nc1cc(Nc2ccc(Cl)cc2)c2ncc(-c3ccc(Cl)cc3)nc2n1 [Compound A258] | 0 |  |
| CCOC(=O)Nc1cc(NC(C)CCCN(CC)CC)c([N+](=O)[O-])c(N)n1.Cl (stereo not drawn) [Compound A269] | 0 |  |
| CCN(CC)S(=O)(=O)c1ccc(CNc2cc(N)nc3nc(-c4ccccc4)c(-c4ccccc4)nc23)cc1 [Compound 4427-143, 4-[(6-Amino-2,3-diphenyl-pyrdo[2,3b]pyrazin-8-yl-amino)-methyl]-N,N-diethyl-benzenesulfonamide] |  | inhibition of growth at 12.5 µg/mL (M. tuberculosis H37Rv [1]; M. tuberculosis H37Rv): 99%; activity against M. tuberculosis H37Rv in the primary screen (M. tuberculosis H37Rv [1]): demonstrated activity; MIC99 (M. tuberculosis H37Rv [2]; M. tuberculosis H37Rv): 3.13 µg/mL (≈ 5.81 µM) |
| CCOC(=O)Nc1cc2c(c(N)n1)N=C(c1ccc(OC)cc1)CS2 [Compound A158] | 10 |  |
| CCOC(=O)Nc1cc2[nH]c(=O)c(-c3ccccc3)nc2c(N)n1 [Compound A196] | 0 |  |
| CCOC(=O)Nc1cc2[nH]c(-c3ccccc3)nc2c(Cl)n1 [Compound A219] | 0 |  |
| CCOC(=O)Nc1cc(NC(C)C(=O)COc2ccccc2)c([N+](=O)[O-])c(N)n1 (stereo not drawn) [Compound A133] | 23 |  |
| CCOC(=O)Nc1cc(Nc2ccccc2)c2nc[nH]c2n1.Cl [Compound A64] | 84 |  |
| CCOC(=O)Nc1cc(NCCc2ccccc2)c2nc[nH]c2n1 [Compound A73] | 74 |  |
| CCOC(=O)N(Cc1ccc(S(N)(=O)=O)cc1)c1cc(Cl)c([N+](=O)[O-])c(N)n1 [Compound A294] | 0 |  |
| CCOC(=O)Nc1cc(N[C@@H](C)[C@@H](O)c2ccc(O)cc2)c([N+](=O)[O-])c(N)n1 [Compound A178] | 4 |  |
| CCOC(=O)Nc1cc(NCc2ccccc2)c(N)c(N)n1 [Compound A154] |  | % Inh (M. tuberculosis H37Rv [1]): 12% |
| CCOC(=O)Nc1cc2ncc(-c3ccccc3)nc2c(NC(C)=O)n1 [Compound A159] | 10 |  |
| CCOC(=O)Nc1cc(NCCc2ccc(S(=O)(=O)N(CC)CC)cc2)c2ncc(C)nc2n1 [Compound A255] | 0 |  |
| CCOC(=O)Nc1cc(N[C@H](C)[C@H](O)c2ccc(O)cc2)c([N+](=O)[O-])c(N)n1 [Compound A173] | 5 |  |
| CCOC(=O)Nc1cc2oc(=O)c(-c3ccccc3)nc2c(N)n1 [Compound A228] | 0 |  |
| CCOC(=O)Nc1cc2[nH]c(-c3ccccc3)nc2c(N(C)Cc2ccccc2)n1 [Compound A3] | 99 |  |
| CCOC(=O)Nc1cc2c(c(N)n1)N=C(c1ccccc1)C(c1ccccc1)O2 (stereo not drawn) [CAO-040, (5-Amino-2,3-diphenyl-2H-pyrido-[4,3b][1,4]oxazin-7-yl)-carbamic acid ethyl ester] |  | inhibition of growth at 12.5 µg/mL (M. tuberculosis H37Rv [1]; M. tuberculosis H37Rv): 90%; activity against M. tuberculosis H37Rv in the primary screen (M. tuberculosis H37Rv [1]): demonstrated activity; MIC99 (M. tuberculosis H37Rv [2]; M. tuberculosis H37Rv): 6.25 µg/mL (≈ 16.1 µM) |
| CCOC(=O)Nc1cc2c(nc(SCc3ccc4c(c3)OCO4)n2N)c(N)n1 [Compound A91] | 61 |  |
| CCOC(=O)Nc1cc(N)c2nc(-c3ccccc3)c(N)nc2n1 [Compound A141] | 19 |  |
| CCOC(=O)Nc1cc(NC(C)C(=O)c2ccc3c(c2)OCO3)c([N+](=O)[O-])c(N)n1 (stereo not drawn) [Compound A140] | 19 |  |
| CCOC(=O)Nc1cc2c(c(N)n1)N=C(c1ccccc1OC)CO2 [Compound A131] | 25 |  |

| SMILES | % Inh (M. tuberculosis H37Rv [1]; [3]) [%] | other results |
| --- | --- | --- |
| CCOC(=O)Nc1cc(NC(C)CCCN(CC)CC)c2ncc(-c3cc(OC)c(OC)c(OC)c3)nc2n1.Cl.Cl (stereo not drawn) [Compound A118] | 40 |  |
| CCOC(=O)Nc1cc2c(c(N)n1)N=C(CN(C)c1ccc(OC)cc1)CN2 [SRI-5713, (5-Amino-3-{[(4-methoxy-phenyl)-methyl-amino]-methyl}-1,2-dihydro-pyrido[3,4-b]pyrazin-7-yl)-carbamic acid ethyl ester] |  | inhibition of growth at 12.5 µg/mL (M. tuberculosis H37Rv [1]; M. tuberculosis H37Rv): 20% |
| CCOC(=O)Nc1cc(NC(C)CCCN(CC)CC)c2nc(-c3ccc([N+](=O)[O-])cc3)cnc2n1 (stereo not drawn) [Compound A50] | 92 | MIC (M. tuberculosis H37Rv [2]; H37RV): > 6.25 µg/mL |
| CCOC(=O)Nc1cc(NC/C(=N/O)c2ccc(C(F)(F)F)cc2)c([N+](=O)[O-])c(N)n1 [Compound A221] | 0 |  |
| CCOC(=O)Nc1cc2ncc(C)nc2c(NC(=O)OCC)n1 [Compound A276] | 0 |  |
| CCOC(=O)Nc1cc(N)c([N+](=O)[O-])c(NC(c2ccccc2)c2ccccc2)n1 [Compound A142] | 18 |  |
| CCOC(=O)Nc1cc2[nH]c(-c3ccc(C)cc3)nc2c(N(CC)CC)n1 [Compound A13] | 98 |  |
| COC(=O)Nc1cc(NC(C)/C(=N/O)c2cccc([N+](=O)[O-])c2)c([N+](=O)[O-])c(N)n1 (stereo not drawn) [Compound A177] | 4 |  |
| CCOC(=O)Nc1cc(NC(c2ccccc2)c2ccccc2)c([N+](=O)[O-])c(OCC(=O)c2ccc(Br)cc2)n1 [Compound A295] | 0 |  |
| CCOC(=O)Nc1cc(NCC(=O)c2ccc([N+](=O)[O-])cc2)c([N+](=O)[O-])c(N)n1 [Compound A220] | 0 |  |
| CCOC(=O)Nc1cc(Cl)c([N+](=O)[O-])c(N)n1 [Compound A106] | 49 |  |
| CCOC(=O)Nc1cc2c3c(n1)[nH]c(=S)n3c(=S)n2N [Compound A199] | 0 |  |
| CCOC(=O)Nc1cc(NC(CC)C(=O)c2ccccc2)c([N+](=O)[O-])c(N)n1 (stereo not drawn) [Compound A307] | −8 |  |
| CCOC(=O)Nc1cc2c(c(N)n1)N=C(c1ccccc1)CS2 [Compound A77] | 71 |  |
| CCOC(=O)Nc1cc(N(C)/N=C/c2ccccc2)c([N+](=O)[O-])c(N)n1 [Compound A204] | 0 |  |
| CCOC(=O)Nc1cc(NC/C(=N/O)c2ccccc2)c([N+](=O)[O-])c(N)n1 [Compound A235] | 0 |  |
| CCOC(=O)Nc1cc2ncc(CN(C)c3ccccc3)nc2c(N)n1 [Compound A78] | 71 |  |
| CCOC(=O)Nc1cc(N)c([N+](=O)[O-])c(N)n1 [Compound A162] | 8 |  |
| CCOC(=O)Nc1nc(NC(=O)OCC)c2c(c1N)NC(C)C(c1ccccc1)=N2 (stereo not drawn) [Compound A194] | 0 |  |
| CCOC(=O)Nc1cc(N/N=C/c2ccccc2)c(N)c(N)n1 [Compound A54] | 91 |  |
| CCOC(=O)Nc1cc2c(c(N)n1)N=C(c1ccccc1)C(C)(C)S2.Cl [Compound A40] | 95 | MIC (M. tuberculosis H37Rv [2]; [4]): > 6.25 µg/mL |
